In publication PMC3144219, “Identification of Inhibitors against Mycobacterium tuberculosis Thiamin Phosphate Synthase, an Important Target for the Development of Anti-TB Drugs” (PLoS ONE, 2011):
In brackets after ≈: the same amount, converted by molar mass. Where two headings read alike, the source gives them in different places.

Columns and labels:
[1] = target: T1, M.tuberculosis thiamin phosphate synthase (MtTPS) (Mycobacterium tuberculosis, UniProt P9WG75)
M.smegmatis mc^2155 = test: MIC99 determination, broth macrodilution with CFU plating; format: cell-based; conditions: for inhibition of M.smegmatis growth: at (up to) 750 µg/ml; for MIC99 for M.smegmatis: 24 hours, 99% inhibition of growth
Cc1ncsc1CCO = test: purified protein, by the assay type; conditions: pH 7.5; 37.0 °C
M.tuberculosis H37Rv = test: MIC99 determination in broth culture with CFU plating; format: cell-based; conditions: 7 days, 99% inhibition of growth; for MIC99: Mycobacterium tuberculosis, H37RV, 168 h
[2] = target: T1, M.tuberculosis thiamin phosphate synthase (MtTPS); test: biochemical; conditions: for inhibition at 100 µg/mL: read-out: percent inhibition of MtTPS activity

T1 sequence (P9WG75 whole entry, looked up): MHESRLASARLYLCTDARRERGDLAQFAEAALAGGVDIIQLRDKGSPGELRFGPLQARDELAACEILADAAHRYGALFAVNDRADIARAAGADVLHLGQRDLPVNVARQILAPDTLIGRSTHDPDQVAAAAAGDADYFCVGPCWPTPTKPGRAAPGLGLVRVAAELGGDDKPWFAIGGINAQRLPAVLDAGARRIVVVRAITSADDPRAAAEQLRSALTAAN

## O=C(Nc1cccc([N+](=O)[O-])c1)c1ccc2ccccc2c1O [Compound 12, 1-hydroxy-(3-nitrophenyl) naphthalene-2-carboxamide]
[1]
  IC50: 100 µ/ml
  percent inhibition of MtTPS activity: greater than 20%
M.smegmatis mc^2155
  inhibition of M.smegmatis growth: 45% inhibition at 750 µg/ml

## M.tuberculosis thiamin phosphate synthase (MtTPS) (Mycobacterium tuberculosis H37Rv)
Cc1ncsc1CCO
  Km: 14 µM

## O=C(Nc1cccc([N+](=O)[O-])c1)c1cc2ccccc2cc1O [Compound 10, Naphtazol B]
M.smegmatis mc^2155
  inhibition of M.smegmatis growth: No inhibition
M.tuberculosis H37Rv
  MIC99 for M.tuberculosis: 750 µg/mL

## CCN(CC)c1nc(Cl)nc(Nc2ccc3cc(-c4ccccc4)c(=O)oc3c2)n1 [Compound 35, Coumarin, 7-[[4-chloro-6-(diethylamino)-s-triazin-2-yl]amino]-3-phenyl-]
[2]
  IC50: > 237 µM
  inhibition at 100 µg/mL: > 20%
M.smegmatis mc^2155
  inhibition of M.smegmatis growth: No inhibition
M.tuberculosis H37Rv
  MIC99: 125 µg/mL (≈ 296 µM)

## c1ccc(CSc2nnc3c4ccccc4c4ccccc4c3n2)cc1 [Compound 33, 3-benzylsulfanyl phenanthro[9,10-e][1,2,4]triazine]
[1]
  IC50: 100 µ/ml
  percent inhibition of MtTPS activity: greater than 20%
M.smegmatis mc^2155
  MIC99 for M.smegmatis: 150 µg/mL
M.tuberculosis H37Rv
  MIC99 for M.tuberculosis: 162.5 µg/mL

## Cc1cc(O)c(C(C)C)cc1N=Cc1cc([N+](=O)[O-])ccc1O [Compound 9, 4-{[(2-hydroxy-5-nitrophenyl)methylidene]amino}-5-methyl-2-(propan-2-yl)phenol]
[1]
  mode of inhibition of MtTPS: competing with HMP-PP
[2]
  IC50: 108 µM
  inhibition at 100 µg/mL: > 20%
M.smegmatis mc^2155
  inhibition of M.smegmatis growth: 32% inhibition at 750 µg/ml
M.tuberculosis H37Rv
  MIC99: 6 µg/mL (≈ 19.1 µM)

## CN1[C@@H]2CC[C@H]1CC(OC(c1ccccc1)c1ccccc1)C2.CS(=O)(=O)O (stereo partly drawn) [Compound 11, 3-benzhydryloxy-8-methyl-8-azab icyclo [3.2.1]octane;methanesulfonic acid]
M.smegmatis mc^2155
  MIC99 for M.smegmatis: 125 µg/mL
M.tuberculosis H37Rv
  MIC99 for M.tuberculosis: 250 µg/mL
